In general, Ki refers to the dissociation constant of the complex between target and ligand, obtained from inhibition or displacement.

Assay [1] addresses T1, Muscarinic acetylcholine receptor M2 (Homo sapiens, UniProt P08172).
T1 sequence (P08172 whole entry): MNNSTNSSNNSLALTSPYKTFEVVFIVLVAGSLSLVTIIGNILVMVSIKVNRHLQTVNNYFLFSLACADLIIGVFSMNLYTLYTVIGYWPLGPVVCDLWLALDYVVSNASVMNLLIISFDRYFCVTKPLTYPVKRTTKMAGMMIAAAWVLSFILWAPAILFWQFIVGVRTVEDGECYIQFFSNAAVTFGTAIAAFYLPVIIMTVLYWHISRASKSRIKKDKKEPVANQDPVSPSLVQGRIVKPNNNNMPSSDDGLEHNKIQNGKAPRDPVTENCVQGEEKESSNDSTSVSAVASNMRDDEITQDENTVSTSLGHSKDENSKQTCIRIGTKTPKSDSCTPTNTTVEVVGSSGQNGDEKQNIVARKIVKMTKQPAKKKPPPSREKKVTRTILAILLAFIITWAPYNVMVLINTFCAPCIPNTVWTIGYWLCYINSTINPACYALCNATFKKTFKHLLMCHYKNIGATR
The experiment in a line: Displacement of [3H]NMS from human cloned muscarinic M2 receptor expressed in CHO cells. The assay is classed as cell-based. For orientation: Loss of bound radioactivity is the signal in a displacement assay; it reports binding, not function.

Assay [2] concerns the target T2, Muscarinic acetylcholine receptor M5 (Homo sapiens, UniProt P08912).
T2 sequence (P08912 whole entry): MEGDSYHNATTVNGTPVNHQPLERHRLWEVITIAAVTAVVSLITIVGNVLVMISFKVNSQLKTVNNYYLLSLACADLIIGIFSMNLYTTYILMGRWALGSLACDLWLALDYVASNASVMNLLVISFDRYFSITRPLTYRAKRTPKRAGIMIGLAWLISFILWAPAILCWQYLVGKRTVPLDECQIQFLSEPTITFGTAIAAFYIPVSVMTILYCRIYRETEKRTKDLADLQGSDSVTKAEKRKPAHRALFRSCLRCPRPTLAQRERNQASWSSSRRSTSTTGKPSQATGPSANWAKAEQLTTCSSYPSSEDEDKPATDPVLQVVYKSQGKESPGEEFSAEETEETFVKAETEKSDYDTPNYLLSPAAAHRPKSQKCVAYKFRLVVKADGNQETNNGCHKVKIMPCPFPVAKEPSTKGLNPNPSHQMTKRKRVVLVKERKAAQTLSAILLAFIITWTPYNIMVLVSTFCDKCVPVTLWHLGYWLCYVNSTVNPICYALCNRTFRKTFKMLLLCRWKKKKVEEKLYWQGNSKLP
Nature of the assay: Displacement of [3H]NMS from human cloned muscarinic M5 receptor expressed in CHO cells. The assay is classed as cell-based.

Assay [3] can be described thus: Intrinsic activity at muscarinic M4 receptor in guinea-pig lung strips assessed as ratio of agonist activity to activity of arecaidine propargyl ester. The assay is classed as functional, Cavia porcellus.
In assay [4] the target is T3, Muscarinic acetylcholine receptor M4 (Homo sapiens, UniProt P08173).
T3 sequence (P08173 whole entry): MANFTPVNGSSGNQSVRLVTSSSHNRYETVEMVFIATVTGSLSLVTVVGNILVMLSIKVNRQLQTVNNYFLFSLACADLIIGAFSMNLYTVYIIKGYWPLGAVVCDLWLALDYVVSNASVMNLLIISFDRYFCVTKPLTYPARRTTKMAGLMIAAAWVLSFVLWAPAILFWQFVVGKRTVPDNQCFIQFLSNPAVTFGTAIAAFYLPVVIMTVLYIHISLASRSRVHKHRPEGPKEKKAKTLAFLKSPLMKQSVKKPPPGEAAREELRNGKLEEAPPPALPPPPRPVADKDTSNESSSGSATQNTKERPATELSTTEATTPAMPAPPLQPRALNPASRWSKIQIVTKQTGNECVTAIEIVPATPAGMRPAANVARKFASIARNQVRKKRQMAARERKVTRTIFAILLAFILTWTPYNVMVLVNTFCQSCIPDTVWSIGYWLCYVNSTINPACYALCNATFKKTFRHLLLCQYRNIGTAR
Nature of the assay: Displacement of [3H]NMS from human cloned muscarinic M4 receptor expressed in CHO cells. Format: cell-based.

A short description of assay [5]: Intrinsic activity at muscarinic M2 receptor in guinea-pig stimulated left atria assessed as ratio of agonist activity to activity of arecaidine propargyl ester. The assay is classed as functional, Cavia porcellus.
Assay [6] addresses Muscarinic acetylcholine receptor M3 (Cavia porcellus) (UniProt Q8VH26). The experiment in a line: Intrinsic activity at muscarinic M3 receptor in guinea-pig ileum assessed as ratio of agonist activity to activity of arecaidine propargyl ester. The assay is classed as functional, tissue-based.
The nature of assay [7]: Intrinsic activity at muscarinic M1 receptor in rabbit stimulated vas deferens assessed as ratio of agonist activity to activity of McN-A-343. The assay is classed as functional, Oryctolagus cuniculus.
Assay [8] can be described thus: Antagonist activity at muscarinic M1 receptor in rabbit vas deferens up to 10 uM. The assay is classed as functional, Oryctolagus cuniculus.

Muscarinic acetylcholine receptor M3 (Cavia porcellus), sequence (Q8VH26 1-587): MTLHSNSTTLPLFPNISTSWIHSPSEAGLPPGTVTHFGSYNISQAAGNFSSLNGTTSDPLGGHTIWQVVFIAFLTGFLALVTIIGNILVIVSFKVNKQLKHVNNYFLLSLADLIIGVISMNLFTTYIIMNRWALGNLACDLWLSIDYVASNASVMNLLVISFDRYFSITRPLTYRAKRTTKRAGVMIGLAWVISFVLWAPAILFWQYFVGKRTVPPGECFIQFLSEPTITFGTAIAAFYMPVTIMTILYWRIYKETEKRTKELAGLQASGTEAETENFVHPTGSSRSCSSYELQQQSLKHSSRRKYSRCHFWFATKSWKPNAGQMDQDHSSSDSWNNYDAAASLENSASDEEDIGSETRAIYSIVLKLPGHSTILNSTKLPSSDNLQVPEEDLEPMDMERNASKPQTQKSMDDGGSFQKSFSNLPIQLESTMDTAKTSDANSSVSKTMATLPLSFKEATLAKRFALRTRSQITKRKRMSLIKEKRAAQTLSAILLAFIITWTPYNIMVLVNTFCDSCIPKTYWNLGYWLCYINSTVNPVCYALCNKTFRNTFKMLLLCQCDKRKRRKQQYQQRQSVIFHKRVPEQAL

As to `C[C@@H]1COC[C@@H](C[N+](C)(C)C)O1.[I-]`, the results for the Ki in assay [1], in assay [2] and in assay [4] were 61.7 µM, 87.1 µM and > 100 µM, respectively. The Intrinsic activity in assay [3] was 0.42; in assay [5], 0.62. For the same compound, the pD2 is 5.22 in assay [3], 5.27 in assay [5] and 4.54 in assay [6].

In the case of `C[C@H]1COC[C@@H](C[N+](C)(C)C)O1.[I-]`, the values for the Ki in assay [1], in assay [2] and in assay [4] were 1.26 µM, 4.57 µM and 9.77 µM, respectively. The Intrinsic activity in assay [3] and in assay [7] was 1 throughout. For the same compound, the figures for the pD2 in assay [7] and in assay [6] were 6.78 and 7.65, respectively.

With `C[C@H]1COC[C@H](C[N+](C)(C)C)O1.[I-]`, the Ki in assay [1] was 5.25 µM; in assay [4], 45.7 µM. Moreover, the values for the Intrinsic activity in assay [3] and in assay [5] were 0.77 and 0.9, respectively. Besides, the pD2 in assay [3] was found to be 5.79; in assay [5], 6.18; in assay [6], 6.26.

On to `CC1COCC(C[N+](C)(C)C)O1` (racemic; form 1), for which the pD2 in assay [6] turned out to be 7.34.

Regarding `CC1COCC(C[N+](C)(C)C)O1.[I-]` (racemic; form 1), the Ki in assay [1] is 2.09 µM; in assay [2], 7.76 µM; in assay [4], 11.5 µM. The Intrinsic activity in assay [7] and in assay [5] was 1 each time. Besides, the pD2 in assay [7] is recorded as 5.65.

Consider `C[C@@H]1COC[C@H](C[N+](C)(C)C)O1.[I-]`, for which the Ki in assay [1] was 6.92 µM; in assay [2], 44.7 µM; in assay [4], 69.2 µM. In addition, the Intrinsic activity in assay [5] is reported as 1. The pD2 was 6.53 in assay [6] and <5 in assay [8].

Regarding `CC1OC(C[N+](C)(C)C)CC1O` (racemic), in assay [5], the Intrinsic activity was 1 and the pD2 was found to be 6.72. In assay [6], the Intrinsic activity was found to be 1 and the pD2 stood at 7.29.

In the case of `CC1COCC(C[N+](C)(C)C)O1.[I-]` (racemic; form 2), the Ki in assay [1] was 4.9 µM; in assay [2] it was 67.6 µM; in assay [4], 87.1 µM. In assay [7], the pD2 stood at 5.08.

The record behind these values is ChEMBL document CHEMBL1140814 (Bioorg Med Chem Lett, 2008).
